In test [1] the target is KRAS protein containing G12D mutation (Homo sapiens (Human), UniProt P01116, G12D). The experiment in a line: SOS-catalyzed nucleotide exchange assay (GNE), TR-FRET. The following applies: biotinylated KRAS G12D, SOS and GTP, 60-minute incubation. It is filed as biochemical. The method, then: Compounds are added to this complex and then after a 60-minute incubation time the mixture is treated with SOS and unlabeled GTP. Small molecule inhibitors stabilize the Bodipy-GDP complex whereas the untreated protein rapidly exchanges Bodipy-GDP for unlabeled GTP resulting in reduced TR-FRET signal.
This solution is referred to as biotinylated KRAS G12D stock solution.

Test [2] has as its system AsPC-1 cells containing homozygous KRAS-G12D activating mutation. The experiment in a line: Cellular phospho-ERK assay with 10% FBS (Examples 107a-256). The format is cell-based. To be noted: read-out: IC50 (nM) pERK (cell with FBS 10%); AsPC-1 cells, 10% fetal bovine serum, 2 hours, ratio of p-Erk vs total Erk. The method, then:
5% CO2 for 2 hours. […] Assay plates were read on a EnVision Multimode Plate Reader (PerkinElmer) and the ratio of p-Erk vs total Erk in each well was used as the final readout.

Counter-ions that a name gives are not always drawn.

As a reminder, the IC50 is the concentration that gives 50% inhibition.

Sequence of KRAS protein containing G12D mutation (P01116 other isoform, or with tags, fused parts or gaps G12D (already in the parent)): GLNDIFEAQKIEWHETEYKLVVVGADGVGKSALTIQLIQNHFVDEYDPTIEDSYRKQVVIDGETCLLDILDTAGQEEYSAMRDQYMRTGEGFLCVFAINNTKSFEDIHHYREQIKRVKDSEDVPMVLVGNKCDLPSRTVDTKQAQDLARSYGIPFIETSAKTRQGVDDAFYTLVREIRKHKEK

Take `CN(C)C[C@@]1(COc2nc(N3C[C@H]4CC[C@@](C)(C3)N4)c3cc(C#N)c(-c4cc(O)cc5ccccc45)c(F)c3n2)CC1(F)F` [136b, 2-(((R)-1-((dimethylamino)methyl)-2,2-difluorocyclopropyl)methoxy)-8-fluoro-7-(3-hydroxynaphthalen-1-yl)-4-((1S,5R)-1-methyl-3,8-diazabicyclo[3.2.]octan-3-yl)quinazoline-6-carbonitrile]: the IC50 in test [1] was determined as 32.4 nM; in test [2], 2380 nM.
Taken in the same sequence, the figures for `CCc1cnn2cc(O)cc(-c3c(F)cc4c(N5C[C@H]6CC[C@@](C)(C5)N6)nc(OC[C@@]56CCCN5C[C@H](F)C6)nc4c3F)c12` [compound 229, 4-(6,8-difluoro-2-(((2R,7aS)-2-fluorotetrahydro-1H-pyrrolizin-7a(5H)-yl)methoxy)-4-((1S,5R)-1-methyl-3,8-diazabicyclo[3.2.1]octan-3-yl)quinazolin-7-yl)-3-ethylpyrazolo[1.5-a]pyridin-6-ol] were 98.5 nM and 1740 nM.
Consider `C[C@]12CCC(CN(c3nc(OC[C@@]45CCCN4C[C@H](F)C5)nc4c(F)c(-c5cc(O)cc6cccc(C(F)F)c56)c(F)cc34)C1)N2` (racemic) [Ex. 181b, rac-4-(6,8-difluoro-2-(((2R,7aS)-2-fluoro-tetrahydro-1H-pyrrol-izin-7a(5H)-yl)meth-oxy)-4-((1S,5R)-1-methyl-3,8-diaza-bicyclo[3.2.1]octan-3-yl)quinazolin-7-yl)-5-(difluoromethyl)naph-thalen-2-ol], for which, in test [2], the IC50 was 2660 nM.
Regarding `C#Cc1cccc2cc(O)cc(-c3c(F)cc4c(N5C[C@H]6CC[C@@](C)(C5)N6)nc(OC)nc4c3F)c12` (single isomer, unassigned) [Ex. 171b, TFA], in test [1], half-maximal inhibition (IC50) required 3470 nM.
Take `C[C@]12CCC(CN(c3nc(OC[C@@]45CCCN4C[C@H](F)C5)nc4c(F)c(-c5cc(O)cc6cccc(C(F)F)c56)c(F)cc34)C1)N2` (single isomer, unassigned) [Ex. 181b]: 141 nM corresponded to half-maximal inhibition in test [1] (IC50).
Regarding `Cc1cccc2cc(O)cc(-c3c(F)cc4c(N5CC6CC[C@@](C)(C5)N6)nc(OC[C@@]56CCCN5C[C@H](F)C6)nc4c3F)c12` (single isomer, unassigned) [Ex. 179a], in test [1], the IC50 was 5.07 nM.
Consider `Cc1nc(N)c(C#N)c(-c2c(F)cc3c(N4CC5CCC(C4)N5)nc(OC[C@@]45CCCN4C[C@H](F)C5)nc3c2F)c1C(F)(F)F` (single isomer, unassigned) [Ex. 156b], for which, in test [1], the IC50 worked out at 554 nM.
On the same count and under the same terms, as for `Cc1cc(N)nc(-c2c(Cl)cc3c(N4CC5CCC(C4)N5)nc(OC[C@@]45CCCN4C[C@H](F)C5)nc3c2F)c1CC(F)(F)F` (single isomer, unassigned) [Ex. 157a], the figure is 113 nM.
Turning to `C[C@]12CCC(CN(c3nc(OC[C@@]45CCCN4C[C@H](F)C5)nc4c(F)c(-c5cc(O)cc6cccc(C(F)F)c56)c(F)cc34)C1)N2` (single isomer, unassigned) [Ex. 181a], in test [1], the IC50 stood at 3.97 nM.
The same measure, in the same setting: as for `Cc1nc(N)cc(-c2c(Cl)cc3c(N4C[C@H]5CC[C@@](C)(C4)N5)nc(OCC4(CN5CCOCC5)CC4)nc3c2F)c1C(F)(F)F` [Ex. 138, 4-(6-chloro-8-fluoro-4-((1S,5R)-1-methyl-3,8-diazabicyclo[3.2.1]octan-3-yl)-2-((1-(morpholinomethyl)cyclopropyl)methoxy)quinazolin-7-yl)-6-methyl-5-(trifluorometh-yl)pyridin-2-amine], the figure is 361 nM; as for `Cc1cc(N)c(F)c(-c2c(F)cc3c(N4CC5CCC(C4)N5)nc(OC[C@@]45CCCN4C[C@H](F)C5)nc3c2F)c1C(F)(F)F` (single isomer, unassigned) [Ex. 146b], 25.2 nM.
Same read-out and setting: as for `Cc1nc(N)c(C#N)c(-c2c(F)cc3c(N4CC5CCC(C4)N5)nc(OC[C@@]45CCCN4C[C@H](F)C5)nc3c2F)c1C(F)(F)F` (single isomer, unassigned) [Ex. 156a], the figure is 14 nM; as for `Cc1cc2[nH]ncc2c(-c2c(F)cc3c(N4CC5CCC(C)(C4)N5)nc(OCC4(CN5CCOCC5)CC4)nc3c2F)c1OC(F)(F)F` (stereo in doubt) [Ex. 125, 4-((1-(((6,8-difluoro-7-(6-methyl-5-(trifluoromethoxy)-1H-indazol-4-yl)-4-((1S,5R)-1-methyl-3,8-diazabicyclo[3.2.1]octan-3-yl)quinazolin-2-yl)oxy)methyl)cyclopropyl)methyl) morpholine], 148 nM; as for `Nc1cc(-c2c(Cl)cc3c(N4CC5CCC(C4)N5)nc(OC[C@@]45CCCN4C[C@H](F)C5)nc3c2F)c(C(F)(F)F)c(Cl)n1` (single isomer, unassigned) [Ex. 155a], 330 nM.
The same measure, in the same setting: as for `CN(CC(C)(C)O)CC1(COc2nc(N3C[C@H]4CC[C@@](C)(C3)N4)c3cc(F)c(-c4cc(O)cc5ccccc45)c(F)c3n2)CC1` [Ex. 226, 4-(6,8-difluoro-2-((1-(((2-hydroxy-2-methylpropyl)(methyl)amino)methyl)cyclopropyl)methoxy)-4-((1S,5R)-1-methyl-3,8-diazabicyclo[3.2.1]octan-3-yl)quinazolin-7-yl)naphthalen-2-ol], the figure is 55.1 nM; as for `Nc1cc2cccc(Cl)c2c(-c2c(F)cc3c(N4CC5CCC(C4)N5)nc(OC[C@@]45CCCN4C[C@H](F)C5)nc3c2F)n1` (single isomer, unassigned) [Ex. 189b], 11100 nM.
Take `CN(C)C[C@@]1(COc2nc(N3C[C@H]4CC[C@@H](C3)N4)c3cc(F)c(-c4c(C(F)(F)F)c(Cl)cc5cnn(C)c45)c(F)c3n2)CC1(F)F` (single isomer, unassigned) [201a]: half-maximal inhibition in test [1] (IC50) required 11100 nM.
Same read-out and setting: as for `CN1[C@@H]2CC[C@H]1CN(c1nc(OC[C@@]34CCCN3C[C@H](F)C4)nc3c(F)c(-c4cc(O)cc5cccc(Cl)c45)c(F)cc13)C2` [Ex. 161, 5-chloro-4-(6,8-difluoro-2-(((2R,7aS)-2-fluorotetrahydro-1H-pyrrolizin-7a(5H)-yl)-methoxy)-4-((1R,5S)-8-methyl-3,8-diaza-bicyclo[3.2.1]octan-3-yl)quinazolin-7-yl)-naphthalen-2-ol], the figure is 591 nM.
On to `Cc1cc(-c2c(Cl)cc3c(N4C[C@H]5CC[C@@H](C4)N5)nc(OC[C@@]45CCCN4C[C@H](F)C5)nc3c2F)nc(N)c1OC(F)F` [Ex. 168, 6-(4-((1R,5S)-3,8-diazabicyclo[3.2.1]-octan-3-yl)-6-chloro-8-fluoro-2-(((2R,7aS)-2-fluorotetrahydro-1H-pyrrolizin-7a(5H)-yl)-methoxy)quinazolin-7-yl)-3-(difluorometh-oxy)-4-methylpyridin-2-amine], for which the midpoint of inhibition in test [1], the IC50, lay at 1310 nM.
On the same count and under the same terms, to `Cc1cc2[nH]nc(C)c2c(-c2c(F)cc3c(N4CC5CCC(C4)N5)nc(OC[C@@]45CCCN4C[C@H](F)C5)nc3c2F)c1OC(F)F` (single isomer, unassigned) [Ex. 233a] belongs 1070 nM.
The same measure, in the same setting: as for `C#Cc1cccc2cccc(-c3c(F)cc4c(N5CC6CC[C@@](C)(C5)N6)nc(OC[C@@]56CCCN5C[C@H](F)C6)nc4c3F)c12` (single isomer, unassigned) [Ex. 211a], the figure is 2080 nM; as for `Cc1cc(N)nc(-c2c(Cl)cc3c(N4CC5CCC(C4)N5)nc(OC[C@@]45CCCN4C[C@H](F)C5)nc3c2F)c1CC(F)(F)F` (single isomer, unassigned) [Ex. 157b], 2940 nM; as for `C[C@]12CC[C@H](CN(c3nc(OCC4(N)CCC4)nc4c(F)c(-c5cc(O)cc6ccccc56)c(F)cc34)C1)N2` [Example 114, 4-(2-((1-aminocyclobutyl)methoxy)-6,8-difluoro-4-((1S,5R)-1-methyl-3,8-diazabicyclo[3.2.1]octan-3-yl)quinazolin-7-yl)naphthalen-2-ol, TFA], 794 nM.
Same read-out and setting: as for `Cc1cc2cnn(C)c2c(-c2c(F)cc3c(N4C[C@H]5CC[C@@H](C4)N5)nc(OC[C@@]45CCCN4C[C@H](F)C5)nc3c2F)c1C(F)(F)F` [251a, 4-((1R,5S)-3,8-diazabicyclo[3.2.1]octan-3-yl)-7-(1,5-dimethyl-6-(trifluoromethyl)-1H-indazol-7-yl)-6,8-difluoro-2-(((2R, 7aS)-2-fluorotetrahydro-1H-pyrrolizin-7a(5H)-yl)methoxy)quinazoline], the figure is 5.15 nM; as for `Nc1cc(Cl)c(C(F)(F)F)c(-c2c(Cl)cc3c(N4CC5CCC(C4)N5)nc(OC[C@@]45CCCN4C[C@H](F)C5)nc3c2F)n1` (single isomer, unassigned) [Ex. 154b], 381 nM.
Consider `Cc1cc2cn(C)nc2c(-c2c(F)cc3c(N4C[C@H]5CC[C@@H](C4)N5)nc(OC[C@@]45CCCN4C[C@H](F)C5)nc3c2F)c1C(F)(F)F` [251b, 4-((1R,5)-3,8-diazabicyclo[3.2.1]octan-3-yl)-7-(2,5-dimethyl-6-(trifluoromethyl)-2H-indazol-7-yl)-68-difluoro-2-(((2R,7aS)-2-fluorotetrahydro-1H-pyrrolizin-7a(5H)-yl)methoxy)quinazoline], for which the IC50 in test [1] worked out at 935 nM.
With `C[C@]12CCC(CN(c3nc(OC[C@@]45CCCN4C[C@H](F)C5)nc4c(F)c(-c5cc(O)cc6cccc(C(F)F)c56)c(F)cc34)C1)N2` (racemic) [Ex. 181a, rac-4-(6,8-difluoro-2-(((2R,7aS)-2-fluoro-tetrahydro-1H-pyrrol-izin-7a(5H)-yl)meth-oxy)-4-((18,5R)-1-methyl-3,8-diaza-bicyclo[3.2.1]octan-3-yl)quinazolin-7-yl)-5-(difluoromethyl)naph-thalen-2-ol], the IC50 in test [2] was found to be 122 nM.
Regarding `C[C@]12CCC(CN(c3nc(OC[C@]4(CNCC(F)F)CC4(F)F)nc4c(F)c(-c5cc(O)cc6cccc(Cl)c56)c(F)cc34)C1)N2` (single isomer, unassigned) [Ex. 221], it took 1110 nM to reach half-maximal inhibition in test [1] (IC50).

The values are drawn from patent publication US20240239788A1, “SMALL MOLECULE INHIBITORS OF KRAS G12D MUTANT” (Merck Sharp & Dohme LLC, priority 2021, published 2024).
